Data set [1] relates to carrageenan-induced oedema of the rat paw. Nature of the data set: Inhibition of carrageenan-induced oedema of the rat paw after i.m. depot administration. It is filed as in vivo, rat (male, Bor:WISW (SPF-Cpb)). Here is the method: The antioedemic and analgesic effect of the test substances after i.m. administration of an appropriate depot formulation was determined using the carrageenan-induced oedema of the rat paw or using the Randall-Selittotest [Arch. int. Pharmacodyn.
The tests were carried out with male rats [strain: Bor:WISW (SPF-Cpb), weight about 200 g]. The animals receive a single i.m. administration of a depot product, and the antiinflammatory effect was checked on subsequent days by inducing oedema with carrageenan.
The paw volumes were measured by the method of F. Kemper and G. Ameln [Z. ges. exp.
Various doses were administered in a constant volume of 0.03 ml administered per rat (see Table).
In general terms: In the carrageenan paw model, swelling and tenderness develop within hours.

The conditions of data set [2]: humans; p.o. versus i.m. in aqueous solution; cited from earlier work.

Here are results for 7 compounds from patent US4614741A, “Depot antiinflammatory agents” (priority 1983, dated 1986).

On to `O=C(O)c1cc(-c2ccc(F)cc2F)ccc1O` [compound 3, 2',4'-Difluoro-4-hydroxy-3-biphenyl-carboxylic acid], for which, in data set [1] (5 mg/kg, suspension), the “% inhibition of oedema, 2nd day after inj.” value is recorded as 26% and the “% inhibition of oedema, 4th day after inj.” value was determined as 13%.

`COc1ccc2cc([C@H](C)C(=O)O)ccc2c1` [compound 10, D-2-(6-Methoxy-2-naphthyl)propionic acid]: in data set [1] (2.5 mg/kg, suspension), the “% inhibition of oedema, 2nd day after inj.” value is on record as 42.8% and the “% inhibition of oedema, 4th day after inj.” value came out at 22.3%.

As for `CC(C)Cc1ccc(C(C)C(=O)O)cc1` (centres unmarked) [compound 11, 2-(p-Isobutylphenyl)-propionic acid], in data set [1] (13 mg/kg, suspension), the “% inhibition of oedema, 2nd day after inj.” value is 40% and the “% inhibition of oedema, 4th day after inj.” value turned out to be 45%.

With `CC(C(=O)O)c1cccc(C(=O)c2ccccc2)c1` (centres unmarked) [compound 13, 2-(m-Benzoylphenyl)-propionic acid], the “maximum level in the plasma” value in data set [2] is “nor do the maximum level in the plasma, or the plasma and renal clearance differ”.

As to `COc1ccc2c(c1)c(CC(=O)O)c(C)n2C(=O)c1ccc(Cl)cc1` [compound 18, 1-(p-Chlorobenzoyl)-5-methoxy-2-methylindole-3-acetic acid], in data set [1] (10.0 mg/kg, solution), the “% inhibition of oedema, 2nd day after inj.” value came to 58.2% and the “% inhibition of oedema, 4th day after inj.” value was determined as 29.5%. Also, in data set [1] (10.0 mg/kg, suspension), the “% inhibition of oedema, 2nd day after inj.” value was 58.2% and the “% inhibition of oedema, 4th day after inj.” value is reported as 29.5%.

Regarding `CN1C(C(=O)Nc2nccs2)=C(O)c2ccccc2S1(=O)=O` [compound 21, 4-Hydroxy-2-methyl-N--2-thiazolyl-2H--1,2-benzothiazine-3-carboxamide 1,1-dioxide], in data set [1] (15 mg/kg, suspension), the “% inhibition of oedema, 2nd day after inj.” value is 42.9% and the “% inhibition of oedema, 4th day after inj.” value turned out to be 30.4%.

With `CN1C(C(=O)Nc2ccccn2)=C(O)c2ccccc2S1(=O)=O` [compound 22, 4-Hydroxy-2-methyl-N--2-pyridinyl-2H--1,2-benzothiazine-3-carboxamide 1,1-dioxide], in data set [1] (0.6 mg/kg, solution), the “% inhibition of oedema, 2nd day after inj.” value was determined as 33.2% and the “% inhibition of oedema, 4th day after inj.” value is 39.3%. In data set [1] (0.6 mg/kg, suspension), the “% inhibition of oedema, 2nd day after inj.” value is listed as 33% and the “% inhibition of oedema, 4th day after inj.” value is listed as 39%.
